Data: patent US9637496B2, “Substituted 7-azabicycles and their use as orexin receptor modulators” (priority 2013, dated 2017)
Read-outs that look alike come from different tables or passages of the source.

Experiments:
human orexin 1 receptor = human orexin 1 receptor (Homo sapiens (Human), UniProt O43613); assay: Human orexin 1 receptor radioligand binding (competitive binding, CHO membranes)
human orexin 2 receptor = human orexin 2 receptor (Homo sapiens (Human), UniProt O43614); assay: Human orexin 2 receptor radioligand binding ([3H]-EMPA competition, HEK293 membranes)
Sequence of human orexin 2 receptor (O43614 whole entry): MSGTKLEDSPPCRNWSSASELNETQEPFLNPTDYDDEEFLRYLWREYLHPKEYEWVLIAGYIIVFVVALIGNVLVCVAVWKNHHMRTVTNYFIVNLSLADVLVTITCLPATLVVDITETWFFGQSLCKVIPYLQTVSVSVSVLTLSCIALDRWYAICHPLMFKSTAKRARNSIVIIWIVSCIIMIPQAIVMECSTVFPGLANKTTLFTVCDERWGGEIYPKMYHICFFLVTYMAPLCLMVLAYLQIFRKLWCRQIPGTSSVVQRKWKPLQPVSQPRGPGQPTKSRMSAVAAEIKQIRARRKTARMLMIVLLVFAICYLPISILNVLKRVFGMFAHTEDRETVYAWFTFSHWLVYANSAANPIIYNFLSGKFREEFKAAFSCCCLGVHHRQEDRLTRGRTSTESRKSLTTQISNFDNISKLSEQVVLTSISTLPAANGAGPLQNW

rat orexin 1 receptor = rat orexin 1 receptor (Rattus norvegicus (Rat), UniProt P56718); assay: Rat orexin 1 receptor radioligand binding (competitive binding, HEK293 membranes)
Sequence of rat orexin 1 receptor (P56718 whole entry): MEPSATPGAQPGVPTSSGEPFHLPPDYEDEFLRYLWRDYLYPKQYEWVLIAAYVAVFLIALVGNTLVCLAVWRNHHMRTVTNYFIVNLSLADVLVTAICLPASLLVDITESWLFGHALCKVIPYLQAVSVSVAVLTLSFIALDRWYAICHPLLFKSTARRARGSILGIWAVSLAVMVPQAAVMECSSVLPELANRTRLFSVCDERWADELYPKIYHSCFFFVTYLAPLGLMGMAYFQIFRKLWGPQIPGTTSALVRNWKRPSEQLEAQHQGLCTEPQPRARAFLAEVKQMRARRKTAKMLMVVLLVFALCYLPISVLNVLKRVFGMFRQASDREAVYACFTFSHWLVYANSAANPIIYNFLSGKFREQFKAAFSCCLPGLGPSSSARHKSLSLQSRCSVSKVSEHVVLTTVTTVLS

[1] = human orexin 1 receptor, Table 2, averages of 2-20 runs, read-out: hOX1 Ki
[2] = human orexin 2 receptor, Table 2, averages of 2-20 runs, read-out: hOX2 Ki
[3] = human orexin 2 receptor, Table 2, averages from between 2-20 runs, read-out: hOX2 Ki
[4] = rat orexin 1 receptor, Table 2, averages from between 2-20 runs, read-out: rOX1 Ki
[5] = human orexin 1 receptor, Table 2, averages from between 2-20 runs, read-out: hOX1 Ki
[6] = Table 2, further testing, averages from 2-20 runs, read-out: hOX2 Ki
[7] = Table 2, further testing, averages from 2-20 runs, read-out: rOX1 Ki

Sequence of human orexin 1 receptor (O43613 whole entry): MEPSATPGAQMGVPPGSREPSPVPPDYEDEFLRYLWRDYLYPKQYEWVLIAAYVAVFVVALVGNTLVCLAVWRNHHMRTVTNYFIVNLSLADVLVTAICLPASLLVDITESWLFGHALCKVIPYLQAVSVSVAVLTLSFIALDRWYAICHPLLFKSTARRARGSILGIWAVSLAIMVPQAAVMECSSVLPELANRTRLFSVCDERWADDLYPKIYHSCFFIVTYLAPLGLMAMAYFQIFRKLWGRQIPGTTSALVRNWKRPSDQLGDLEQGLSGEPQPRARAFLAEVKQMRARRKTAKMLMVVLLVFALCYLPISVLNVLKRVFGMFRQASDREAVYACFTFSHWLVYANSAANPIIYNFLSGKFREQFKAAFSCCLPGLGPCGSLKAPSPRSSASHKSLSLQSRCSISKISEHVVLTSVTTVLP

Structure (SMILES) | Ki (human orexin 1 receptor) | Ki (rat orexin 1 receptor) | Ki (human orexin 2 receptor; [3]) | Ki (rat orexin 1 receptor; [4]) | other results
O=C(c1ccccc1-n1cccn1)N1C2CCC1C(COc1ccc(F)cn1)C2 (racemic) [Example 26, (±)-2-(1H-pyrazol-1-yl)phenyl)(2-(((5-fluoropyridin-2-yl)oxy)methyl)-7-azabicyclo[2.2.1]heptan-7-yl)methanone] | – | – | – | – | Ki (human orexin 1 receptor; [1]): 134 nM
O=C(c1cc(F)ccc1-n1nccn1)N1C2CCC1C(COc1ccc(F)cn1)C2 (racemic) [Example 30, (±)-(5-fluoro-2-(2H-1,2,3-triazol-2-yl)phenyl)(2-(((5-fluoropyridin-2-yl)oxy)methyl)-7-azabicyclo[2.2.1]heptan-7-yl)methanone] | 60 nM | – | – | – | Ki (human orexin 2 receptor; [2]): 160 nM
O=C(c1c(F)cccc1-c1ncccn1)N1C2CCC1C(COc1ccc(F)cn1)C2 (racemic) [Example 31, (±)-(2-fluoro-6-(pyrimidin-2-yl)phenyl)(2-(((5-fluoropyridin-2-yl)oxy)methyl)-7-azabicyclo[2.2.1]heptan-7-yl)methanone] | 43 nM | – | – | – | –
Cc1cc(C)nc(OCC2CC3CCC2N3C(=O)c2ccccc2-c2cccs2)n1 (racemic) [Example 46, (±)-(2-(((4,6-dimethylpyrimidin-2-yl)oxy)methyl)-7-azabicyclo[2.2.1]heptan-7-yl)(2-(thiophen-2-yl)phenyl)methanone] | – | – | – | – | Ki (human orexin 1 receptor; [1]): 111 nM
CCOc1ncc2ccccc2c1C(=O)N1C2CCC1C(COc1ccccn1)C2 (racemic) [Example 83, (±)-(3-ethoxyisoquinolin-4-yl)(2-((pyridin-2-yloxy)methyl)-7-azabicyclo[2.2.1]heptan-7-yl)methanone] | 13 nM | – | – | – | –
O=C(c1cccc(F)c1-c1ncccn1)N1C2CCC1C(COc1ccc(F)cn1)C2 (racemic) [Example 124, (±)-(3-fluoro-2-(pyrimidin-2-yl)phenyl)(-2-(((5-fluoropyridin-2-yl)oxy)methyl)-7-azabicyclo[2.2.1]heptan-7-yl)methanone] | 75 nM | – | – | – | –
O=C(c1cccc(F)c1-n1nccn1)N1C2CCC1C(COc1nccc(C(F)(F)F)n1)C2 (racemic) [Example 134, (±)-(3-fluoro-2-(2H-1,2,3-triazol-2-yl)phenyl)(2-(((4-(trifluoromethyl)pyrimidin-2-yl)oxy)methyl)-7-azabicyclo[2.2.1]heptan-7-yl)methanone] | 690 nM | 1500 nM | – | – | –
O=C(c1ccccc1-n1nccn1)N1C2CCC1C(Oc1ccc(C(F)(F)F)cn1)C2 (racemic) [Example 421] | 154 nM | 205 nM | 4200 nM | – | –
Cc1cccc(C(=O)N2C3CCC2C(Oc2ccc(C(F)(F)F)cn2)C3)c1-n1nccn1 (racemic) [Example 422] | – | – | 2150 nM | 91 nM | Ki (human orexin 1 receptor; [5]): 57 nM
O=C(c1cccc(F)c1-n1nccn1)N1C2CCC1C(Oc1ccc(C(F)(F)F)cn1)C2 (racemic) [Example 423] | 174 nM | 202 nM | – | – | Ki (human orexin 2 receptor): 4870 nM
O=C(c1cccc(F)c1-c1ncccn1)N1C2CCC1C(Oc1ccc(C(F)(F)F)cn1)C2 (racemic) [Example 429] | 120 nM | 77 nM | 6300 nM | – | –
O=C(c1ccc(F)cc1-c1ncccn1)N1C2CCC1C(Oc1ccc(C(F)(F)F)cn1)C2 (racemic) [Example 430] | – | – | > 10000 nM | 245 nM | Ki (human orexin 1 receptor; [5]): 300 nM
O=C(c1c(F)cccc1-c1ncccn1)N1C2CCC1C(Oc1ccc(C(F)(F)F)cn1)C2 (racemic) [Example 431] | 180 nM | 143 nM | – | – | Ki (human orexin 2 receptor): 5100 nM
O=C(c1ccccc1-c1ncccn1)N1C2CCC1C(Oc1ccc(C(F)(F)F)cn1)C2 (racemic) [Example 432] | – | – | 6000 nM | 147 nM | Ki (human orexin 1 receptor; [5]): 307 nM
O=C(c1ccccc1-c1ncc(F)cn1)N1C2CCC1C(Oc1ccc(C(F)(F)F)cn1)C2 (racemic) [Example 433] | 73 nM | 107 nM | 2500 nM | – | –
O=C(c1cccc(F)c1-c1ncc(F)cn1)N1C2CCC1C(Oc1ccc(C(F)(F)F)cn1)C2 (racemic) [Example 434] | 172 nM | 134 nM | – | – | Ki (human orexin 2 receptor): > 10000 nM

Structure (SMILES) | Ki (human orexin 1 receptor) | Ki (rat orexin 1 receptor) | Ki (human orexin 2 receptor; [3]) | Ki (rat orexin 1 receptor; [4]) | other results
Cc1cccc(C(=O)N2C3CCC2C(Oc2ccc(C(F)(F)F)cn2)C3)c1-c1ncco1 (racemic) [Example 435] | 29 nM | 50 nM | – | – | Ki (human orexin 2 receptor): 520 nM
O=C(c1cccc(F)c1-c1ncco1)N1C2CCC1C(Oc1ccc(C(F)(F)F)cn1)C2 (racemic) [Example 436] | – | – | – | 143 nM | Ki (human orexin 2 receptor): 3500 nM; Ki (human orexin 1 receptor; [5]): 116 nM
O=C(c1cccc(F)c1-n1nccn1)N1C2CCC1C(Oc1ccc(Br)cn1)C2 (racemic) [Example 440] | – | – | 6000 nM | 118 nM | Ki (human orexin 1 receptor; [5]): 100 nM
Cc1cccc(C(=O)N2C3CCC2C(Oc2cnc(C(F)(F)F)cn2)C3)c1-n1nccn1 (racemic) [Example 444] | 237 nM | 165 nM | – | – | Ki (human orexin 2 receptor): 4200 nM
O=C(c1cccc(F)c1-c1ncccn1)N1C2CCC1C(Oc1cnc(C(F)(F)F)cn1)C2 (racemic) [Example 447, (R/S)-(3-fluoro-2-(pyrimidin-2-yl)phenyl)(2-((5-(trifluoromethyl)pyrazin-2-yl)oxy)-7-azabicyclo[2.2.1]heptan-7-yl)methanone] | – | – | – | – | Ki (human orexin 2 receptor; [6]): > 10000 nM; Ki (rat orexin 1 receptor; [7]): 293 nM
Cc1coc(-c2ccc(C)nc2C(=O)N2[C@@H]3CC[C@H]2[C@H](COc2ncc(F)cn2)C3)n1 [Example 179, ((1S,2R,4R)-2-(((5-fluoropyrimidin-2-yl)oxy)methyl)-7-azabicyclo[2.2.1]heptan-7-yl)(6-methyl-3-(4-methyloxazol-2-yl)pyridin-2-yl)methanone] | – | – | – | – | Ki (human orexin 2 receptor; [2]): 5400 nM; Ki (rat orexin 1 receptor; rat orexin 1 receptor, Table 2, averages of 2-20 runs, read-out: rOX1 Ki): 2400 nM
O=C(c1cccc(F)c1-c1ncccn1)N1[C@@H]2CC[C@H]1[C@H](Nc1cnc(C(F)(F)F)cn1)C2 [Example 238, (3-fluoro-2-(pyrimidin-2-yl)phenyl)((1S,2R,4R)-2-((5-(trifluoromethyl)pyrazin-2-yl)amino)-7-azabicyclo[2.2.1]heptan-7-yl)methanone] | 15 nM | 15 nM | – | – | Ki (human orexin 2 receptor): 763 nM
O=C(c1cccc(F)c1-c1ncccn1)N1[C@H]2CC[C@@H]1[C@@H](Nc1cnc(C(F)(F)F)cn1)C2 [Example 297, (3-fluoro-2-(pyrimidin-2-yl)phenyl)((1R,2S,4S)-2-((5-(trifluoromethyl)pyrazin-2-yl)amino)-7-azabicyclo[2.2.1]heptan-7-yl)methanone] | – | 402 nM | – | – | Ki (human orexin 1 receptor; [5]): > 10000 nM
Cc1cnc(-c2ncccn2)c(C(=O)N2[C@@H]3CC[C@H]2[C@H](Nc2ccc(C(F)(F)F)cn2)C3)c1 [Example 378, (5-methyl-2-(pyrimidin-2-yl)pyridin-3-yl)((1S,2R,4R)-2-((5-(trifluoromethyl)pyridin-2-yl)amino)-7-azabicyclo[2.2.1]heptan-7-yl)methanone] | – | – | > 10000 nM | 310 nM | –
Cc1ccc(-c2ncccn2)c(C(=O)N2[C@@H]3CC[C@H]2[C@H](Nc2ccc(C(F)(F)F)cn2)C3)n1 [Example 379, (6-methyl-3-(pyrimidin-2-yl)pyridin-2-yl)((1S,2R,4R)-2-((5-(trifluoromethyl)pyridin-2-yl)amino)-7-azabicyclo[2.2.1]heptan-7-yl)methanone] | – | – | – | – | Ki (rat orexin 1 receptor; read-out: rOX1 Ki): 25 nM; Ki (human orexin 1 receptor; read-out: hOX1 Ki): 24 nM
O=C(c1cccnc1-n1nccn1)N1[C@@H]2CC[C@H]1[C@H](Nc1cnc(C(F)(F)F)cn1)C2 [Example 402, (2-(2H-1,2,3-triazol-2-yl)pyridin-3-yl)((1S,2R,4R)-2-((5-(trifluoromethyl)pyrazin-2-yl)amino)-7-azabicyclo[2.2.1]heptan-7-yl)methanone] | – | – | > 10000 nM | 575 nM | –
Cc1cnc(-c2ncccn2)c(C(=O)N2[C@@H]3CC[C@H]2[C@H](Nc2cnc(C(F)(F)F)cn2)C3)c1 [Example 404, (5-methyl-2-(pyrimidin-2-yl)pyridin-3-yl)((1S,2R,4R)-2-((5-(trifluoromethyl)pyrazin-2-yl)amino)-7-azabicyclo[2.2.1]heptan-7-yl)methanone] | – | – | > 10000 nM | 419 nM | –
COc1ccc(C(=O)N2[C@@H]3CC[C@H]2[C@H](Nc2cnc(C(F)(F)F)cn2)C3)c(Cl)n1 [Example 413, (2-chloro-6-methoxypyridin-3-yl)((1S,2R,4R)-2-((5-(trifluoromethyl)pyrazin-2-yl)amino)-7-azabicyclo[2.2.1]heptan-7-yl)methanone] | – | – | > 10000 nM | > 10000 nM | –
O=C(c1cccc(F)c1-c1ncccn1)N1[C@@H]2CC[C@H]1[C@H](Nc1nc(C(F)(F)F)cs1)C2 [Example 418, (3-fluoro-2-(pyrimidin-2-yl)phenyl)((1S,2R,4R)-2-((4-(trifluoromethyl)thiazol-2-yl)amino)-7-azabicyclo[2.2.1]heptan-7-yl)methanone] | – | – | 2500 nM | 459 nM | –
O=C(c1cccc(F)c1-c1ncccn1)N1[C@@H]2CC[C@H]1[C@H](Nc1nnc(C(F)(F)F)s1)C2 [Example 419, (3-fluoro-2-(pyrimidin-2-yl)phenyl)((1S,2R,4R)-2-((5-(trifluoromethyl)-1,3,4-thiadiazol-2-yl)amino)-7-azabicyclo[2.2.1]heptan-7-yl)methanone] | – | – | 7400 nM | 853 nM | –
Cc1cnc(-c2ncccn2)c(C(=O)N2[C@@H]3CC[C@H]2[C@H](Nc2ncc(C(F)(F)F)cc2F)C3)c1 [Example 455, ((1S,2R,4R)-2-((3-fluoro-5-(trifluoromethyl)pyridin-2-yl)amino)-7-azabicyclo[2.2.1]heptan-7-yl)(5-methyl-2-(pyrimidin-2-yl)pyridin-3-yl)methanone] | – | – | – | – | Ki (human orexin 2 receptor; [6]): > 10000 nM; Ki (rat orexin 1 receptor; [7]): 464 nM
